Results as given in ChEMBL document CHEMBL3822358 (J Med Chem, 2016).

How the values were obtained:
[1] = target: Insulin receptor (Homo sapiens, UniProt P06213)
Description: Inhibition of human InsR using myelin basic protein as substrate and [gamma-33P]ATP measured after 1 hr

[2] = target: ALK tyrosine kinase receptor (Homo sapiens, UniProt Q9UM73)
Description: Inhibition of human ALK using poly[Glu:Tyr] (4:1) as substrate and [gamma-33P]ATP measured after 1 hr

[3] = cells; settings: Homo sapiens, KARPAS-299, 72 h
Description: Antiproliferative activity against human ALK-positive KARPAS299 cells assessed as reduction in cell viability measured after 72 hrs by CellTiter 96 aqueous one solution cell proliferation assay

[4] = target: Insulin-like growth factor 1 receptor (Homo sapiens, UniProt P08069)
[5] = cells; settings: Homo sapiens, U-937, 72 h
Description: Antiproliferative activity against human ALK-negative U937 cells assessed as reduction in cell viability measured after 72 hrs by CellTiter 96 aqueous one solution cell proliferation assay

[6] = Volume of distribution at steady state in CD rat at 3 mg/kg, iv by LC-MS/MS analysis; type: ADME, organism-based; settings: CD, in vivo, read-out: Vdss
[7] = AUC (0 to infinity) in CD rat at 3 mg/kg, iv by LC-MS/MS analysis; type: ADME, organism-based; set-up: dose 3 mg/kg, time infinity, route intravenous; settings: CD, in vivo
[8] = AUC (0 to infinity) in CD rat at 10 mg/kg, po by LC-MS/MS analysis; type: ADME, organism-based; set-up: dose 10 mg/kg, route oral, time infinity; settings: in vivo
[9] = Half life in CD rat at 3 mg/kg, iv by LC-MS/MS analysis; type: ADME, organism-based; settings: CD, in vivo
[10] = Cmax in CD rat at 10 mg/kg, po by LC-MS/MS analysis; type: ADME, organism-based; set-up: dose 10 mg/kg, route oral; settings: in vivo
[11] = Tmax in CD rat at 10 mg/kg, po by LC-MS/MS analysis; type: ADME, organism-based; settings: in vivo
[12] = Clearance in CD rat at 3 mg/kg, iv by LC-MS/MS analysis; type: ADME, organism-based; settings: in vivo
[13] = Half life in CD rat at 10 mg/kg, po by LC-MS/MS analysis; type: ADME, organism-based; settings: in vivo
[14] = Oral bioavailability in CD rat at 10 mg/kg by LC-MS/MS analysis; type: ADME, organism-based; settings: in vivo

Chain of Insulin receptor (P06213 28-758 limits assumed): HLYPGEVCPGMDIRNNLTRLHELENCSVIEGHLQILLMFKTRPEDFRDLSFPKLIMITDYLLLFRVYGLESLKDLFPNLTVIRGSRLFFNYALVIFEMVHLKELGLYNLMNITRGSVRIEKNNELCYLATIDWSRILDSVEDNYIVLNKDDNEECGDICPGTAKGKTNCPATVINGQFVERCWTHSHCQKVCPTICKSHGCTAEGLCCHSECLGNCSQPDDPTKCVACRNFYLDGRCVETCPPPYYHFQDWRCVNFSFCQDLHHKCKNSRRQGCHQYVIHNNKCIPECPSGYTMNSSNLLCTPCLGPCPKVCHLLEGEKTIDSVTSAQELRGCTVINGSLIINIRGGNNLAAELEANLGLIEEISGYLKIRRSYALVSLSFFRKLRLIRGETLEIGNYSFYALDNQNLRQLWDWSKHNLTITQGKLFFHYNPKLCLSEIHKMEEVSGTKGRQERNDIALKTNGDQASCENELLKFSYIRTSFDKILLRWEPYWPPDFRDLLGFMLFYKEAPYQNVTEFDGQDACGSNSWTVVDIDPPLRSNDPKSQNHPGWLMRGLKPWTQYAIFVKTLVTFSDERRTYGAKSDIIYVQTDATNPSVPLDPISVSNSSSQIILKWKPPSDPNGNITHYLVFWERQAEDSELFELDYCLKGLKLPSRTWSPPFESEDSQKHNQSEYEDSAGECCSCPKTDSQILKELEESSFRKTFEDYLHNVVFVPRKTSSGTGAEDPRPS
Chain of Insulin receptor (P06213 763-1382 limits assumed): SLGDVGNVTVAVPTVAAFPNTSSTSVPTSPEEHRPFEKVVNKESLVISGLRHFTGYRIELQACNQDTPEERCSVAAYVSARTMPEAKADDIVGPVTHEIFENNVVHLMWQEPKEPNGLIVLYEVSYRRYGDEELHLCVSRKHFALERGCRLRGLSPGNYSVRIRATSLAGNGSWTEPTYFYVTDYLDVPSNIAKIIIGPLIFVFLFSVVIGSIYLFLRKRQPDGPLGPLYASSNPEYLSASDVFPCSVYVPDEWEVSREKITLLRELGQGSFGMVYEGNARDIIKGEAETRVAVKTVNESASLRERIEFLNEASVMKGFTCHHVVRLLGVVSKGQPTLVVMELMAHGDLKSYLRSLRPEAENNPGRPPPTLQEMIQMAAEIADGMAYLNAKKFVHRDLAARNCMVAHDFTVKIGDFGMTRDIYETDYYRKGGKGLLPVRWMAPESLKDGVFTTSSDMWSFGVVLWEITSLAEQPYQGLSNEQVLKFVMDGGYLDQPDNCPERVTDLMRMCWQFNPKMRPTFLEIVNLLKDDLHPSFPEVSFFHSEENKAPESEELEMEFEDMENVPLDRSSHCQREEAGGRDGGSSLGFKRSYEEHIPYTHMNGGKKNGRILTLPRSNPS
Chain of ALK tyrosine kinase receptor (Q9UM73 whole entry): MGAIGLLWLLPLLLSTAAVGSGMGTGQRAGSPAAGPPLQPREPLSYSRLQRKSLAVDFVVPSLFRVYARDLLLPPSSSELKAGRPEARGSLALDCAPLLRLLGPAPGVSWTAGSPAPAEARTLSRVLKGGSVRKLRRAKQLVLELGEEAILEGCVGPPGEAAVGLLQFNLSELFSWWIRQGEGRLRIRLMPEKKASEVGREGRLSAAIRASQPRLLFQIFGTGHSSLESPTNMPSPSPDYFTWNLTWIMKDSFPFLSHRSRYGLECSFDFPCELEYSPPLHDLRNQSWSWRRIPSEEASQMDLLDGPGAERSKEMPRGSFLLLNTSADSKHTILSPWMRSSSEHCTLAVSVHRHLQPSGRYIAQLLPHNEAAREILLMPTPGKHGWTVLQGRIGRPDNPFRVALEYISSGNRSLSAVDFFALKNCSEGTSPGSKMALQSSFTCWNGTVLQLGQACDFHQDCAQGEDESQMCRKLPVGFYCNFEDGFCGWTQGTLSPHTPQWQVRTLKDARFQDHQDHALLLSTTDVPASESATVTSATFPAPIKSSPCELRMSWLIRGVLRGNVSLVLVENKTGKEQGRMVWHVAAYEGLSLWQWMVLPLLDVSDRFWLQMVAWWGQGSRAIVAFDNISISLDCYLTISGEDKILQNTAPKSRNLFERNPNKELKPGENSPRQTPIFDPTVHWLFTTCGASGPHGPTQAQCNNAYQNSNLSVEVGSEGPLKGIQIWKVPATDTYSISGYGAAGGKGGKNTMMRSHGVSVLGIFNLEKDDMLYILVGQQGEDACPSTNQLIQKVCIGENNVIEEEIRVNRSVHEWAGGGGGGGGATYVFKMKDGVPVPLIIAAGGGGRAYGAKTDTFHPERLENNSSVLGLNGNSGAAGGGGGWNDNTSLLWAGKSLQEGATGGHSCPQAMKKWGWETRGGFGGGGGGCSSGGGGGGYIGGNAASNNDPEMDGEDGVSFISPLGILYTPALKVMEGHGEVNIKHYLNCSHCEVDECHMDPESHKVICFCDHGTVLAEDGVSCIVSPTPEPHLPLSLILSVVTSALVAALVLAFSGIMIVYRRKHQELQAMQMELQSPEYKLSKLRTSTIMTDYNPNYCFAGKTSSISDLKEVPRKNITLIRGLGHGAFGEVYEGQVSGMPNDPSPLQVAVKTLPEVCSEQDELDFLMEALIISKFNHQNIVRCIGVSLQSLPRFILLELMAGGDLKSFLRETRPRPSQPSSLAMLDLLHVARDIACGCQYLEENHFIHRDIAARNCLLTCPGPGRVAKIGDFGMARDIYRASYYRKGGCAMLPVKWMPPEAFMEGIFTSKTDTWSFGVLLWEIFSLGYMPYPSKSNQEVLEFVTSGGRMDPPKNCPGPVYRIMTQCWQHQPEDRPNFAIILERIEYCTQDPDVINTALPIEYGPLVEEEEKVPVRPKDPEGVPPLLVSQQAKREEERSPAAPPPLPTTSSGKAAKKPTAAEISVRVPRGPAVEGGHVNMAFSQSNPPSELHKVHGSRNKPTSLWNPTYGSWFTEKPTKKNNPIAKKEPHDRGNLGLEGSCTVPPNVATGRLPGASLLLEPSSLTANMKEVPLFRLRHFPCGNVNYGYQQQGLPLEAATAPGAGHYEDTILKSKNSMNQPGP
Chain of Insulin-like growth factor 1 receptor (P08069 31-736 limits assumed): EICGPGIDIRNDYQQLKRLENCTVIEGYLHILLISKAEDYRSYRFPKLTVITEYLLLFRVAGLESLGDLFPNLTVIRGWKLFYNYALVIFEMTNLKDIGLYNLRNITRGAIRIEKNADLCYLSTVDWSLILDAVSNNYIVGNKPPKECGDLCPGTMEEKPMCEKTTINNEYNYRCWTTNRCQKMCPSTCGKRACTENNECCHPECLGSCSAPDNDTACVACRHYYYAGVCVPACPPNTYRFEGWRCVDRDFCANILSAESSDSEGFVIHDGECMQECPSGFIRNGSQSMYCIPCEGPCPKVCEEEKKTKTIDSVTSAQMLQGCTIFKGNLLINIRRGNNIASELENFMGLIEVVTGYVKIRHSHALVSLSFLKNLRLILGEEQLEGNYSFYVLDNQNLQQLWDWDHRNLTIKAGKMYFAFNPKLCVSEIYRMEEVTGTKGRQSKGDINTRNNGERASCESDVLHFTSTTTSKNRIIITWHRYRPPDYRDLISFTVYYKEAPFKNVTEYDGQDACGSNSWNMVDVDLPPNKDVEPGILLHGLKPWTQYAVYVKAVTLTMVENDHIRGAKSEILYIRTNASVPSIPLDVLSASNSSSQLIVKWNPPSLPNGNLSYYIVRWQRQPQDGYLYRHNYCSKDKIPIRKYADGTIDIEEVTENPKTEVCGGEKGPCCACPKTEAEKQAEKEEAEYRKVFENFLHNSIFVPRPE
Chain of Insulin-like growth factor 1 receptor (P08069 741-1367 limits assumed): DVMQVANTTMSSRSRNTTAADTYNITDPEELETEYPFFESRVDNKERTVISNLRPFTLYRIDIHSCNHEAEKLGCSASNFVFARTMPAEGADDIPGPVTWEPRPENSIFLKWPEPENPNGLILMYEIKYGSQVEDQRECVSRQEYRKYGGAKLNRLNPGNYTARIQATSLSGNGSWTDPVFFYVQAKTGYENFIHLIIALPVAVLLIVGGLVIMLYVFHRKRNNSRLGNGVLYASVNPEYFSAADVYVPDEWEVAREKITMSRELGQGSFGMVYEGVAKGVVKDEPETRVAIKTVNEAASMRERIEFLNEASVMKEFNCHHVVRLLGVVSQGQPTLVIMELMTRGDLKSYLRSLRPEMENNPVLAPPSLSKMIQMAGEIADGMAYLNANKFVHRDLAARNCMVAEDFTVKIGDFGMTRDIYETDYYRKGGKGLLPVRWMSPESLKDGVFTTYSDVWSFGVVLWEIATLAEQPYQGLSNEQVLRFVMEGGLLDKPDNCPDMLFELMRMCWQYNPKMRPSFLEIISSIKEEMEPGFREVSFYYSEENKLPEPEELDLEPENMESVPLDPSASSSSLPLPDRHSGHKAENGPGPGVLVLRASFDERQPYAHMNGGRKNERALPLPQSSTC

Row | Compound | IC50 [1] | IC50 [2] | IC50 [3] | IC50 [4] | IC50 [5] | further results
1 | COc1cc(P(C)(C)=O)ccc1Nc1ncc(Cl)c(Nc2ccccc2C(N)=O)n1 | 14.1 nM | 0.68 nM | 613 nM | 0.11 nM | 2370 nM | 
2 | COc1cc(N2CCC(N3CCN(C)CC3)CC2)ccc1Nc1ncc(C)c(Nc2ccccc2P(C)(C)=O)n1 | 483 nM | 0.42 nM | 46.9 nM | 128 nM | 5310 nM | 
3 | COc1cc(N2CCC(N3CCN(C)CC3)CC2)c(C)cc1Nc1ncc(Cl)c(Nc2ccccc2P(C)(C)=O)n1 | 171 nM | 0.86 nM |  | 27 nM |  | GI50 [3]: 16 nM; GI50 [5]: 1280 nM
4 | COc1cc(P(C)(C)=O)ccc1Nc1ncc(Cl)c(Nc2ccccc2S(=O)(=O)C(C)C)n1 | 9.9 nM | 0.31 nM | 20 nM | 1.9 nM | 4840 nM | 
5 | CCOc1cc(N2CCC(N3CCN(C)CC3)CC2)ccc1Nc1ncc(Cl)c(Nc2ccccc2P(C)(C)=O)n1 | 253 nM | 0.75 nM | 58.9 nM | 103 nM | 22400 nM | 
6 | COc1cc(P(C)(C)=O)ccc1Nc1ncc(Cl)c(Nc2ccccc2OC)n1 | 55.2 nM | 0.96 nM | 278 nM | 22.1 nM | 2910 nM | 
7 | CCP(=O)(CC)c1ccccc1Nc1nc(Nc2ccc(N3CCC(N4CCN(C)CC4)CC3)cc2OC)ncc1Cl | 314 nM | 0.12 nM | 169 nM | 45.1 nM | 3460 nM | 
8 | COc1cc(P(C)(C)=O)ccc1Nc1ncc(Cl)c(Nc2ccccc2S(C)(=O)=O)n1 | 4.7 nM | 0.33 nM | 405 nM | 0.4 nM | 4810 nM | 
9 | COc1cc(N2CCC(N3CCN(C)CC3)CC2)ccc1Nc1ncc(Cl)c(Nc2ccccc2C(C)=O)n1 | 2.16 nM | 1.59 nM |  | 1.33 nM |  | 
10 | COc1cc(N2CCN(CCO)CC2)ccc1Nc1ncc(Cl)c(Nc2ccccc2P(C)(C)=O)n1 | 28.1 nM | 0.18 nM | 37.6 nM | 12.8 nM | 1800 nM | Vd [6]: 9.51 L/kg; AUC(0-inf) [7]: 1330 ng·h/mL; AUC(0-inf) [8]: 777 ng·h/mL; half-life [9]: 8.4 h; Cmax [10]: 75.7 ng/mL; Tmax [11]: 4 h; clearance [12]: 35.8 mL/min/kg; half-life [13]: 2.9 h; bioavailability [14]: 18%
11 | COc1cc(N2CCC(N3CCN(C)CC3)CC2)ccc1Nc1ncc(C(C)=O)c(Nc2ccccc2P(C)(C)=O)n1 |  | 291 nM |  |  |  | 
12 | COc1cc(N2CCC(N3CCN(C)CC3)CC2)ccc1Nc1ncc(F)c(Nc2ccccc2P(C)(C)=O)n1 | 1680 nM | 0.39 nM | 147 nM | 143 nM | 24200 nM | 
13 | COc1cc(N2CCOCC2)ccc1Nc1ncc(Cl)c(Nc2ccccc2P(C)(C)=O)n1 | 399 nM | 0.24 nM | 77.4 nM | 51.4 nM | 5990 nM | 
14 | COc1cc(N2CCN(C(C)=O)CC2)ccc1Nc1ncc(Cl)c(Nc2ccccc2P(C)(C)=O)n1 | 103 nM |  | 79.9 nM | 32.5 nM | 5450 nM | 
15 | COc1cc(N2CCC(N3CCCN(C)CC3)CC2)ccc1Nc1ncc(Cl)c(Nc2ccccc2P(C)(C)=O)n1 | 162 nM | 0.49 nM | 105 nM | 38.8 nM | 3390 nM | 
16 | COc1cc(N2CCC(N3CCN(C)CC3)CC2)c(F)cc1Nc1ncc(Cl)c(Nc2ccccc2P(C)(C)=O)n1 | 1180 nM | 1.03 nM | 162 nM | 59.5 nM | 1230 nM | 
17 | COc1cc(N2CCC(N3CCN(C)CC3)CC2)ccc1Nc1ncc(Cl)c(Nc2ccccc2)n1 | 81.7 nM | 9.9 nM |  | 51.6 nM |  | 
18 | COc1cc(N2CCC(N3CCN(C)CC3)CC2)ccc1Nc1ncc(Cl)c(Nc2ccccc2S(=O)(=O)N(C)C)n1 | 8.44 nM | 0.75 nM |  | 1.93 nM |  | 
19 | COc1cc(N2CCC(N3CCN(C)CC3)CC2)ccc1Nc1ncc(Cl)c(Nc2ccccc2I)n1 | 13.7 nM | 1.36 nM | 705 nM | 6.2 nM |  | 
20 | COc1cc(N2CC[C@@H](N(C)C)C2)ccc1Nc1ncc(Cl)c(Nc2ccccc2P(C)(C)=O)n1 | 489 nM | 0.33 nM | 66.9 nM | 42.7 nM | 1170 nM | 
21 | COc1cc(N2CCC(N3CCN(C)CC3)CC2)ccc1Nc1ncc(Cl)c(Nc2ccccc2C(N)=O)n1 | 3.4 nM | 0.8 nM |  | 1.4 nM |  | 
